Assay results: the supplement of paper PMC7108870

What was measured:
HEK293sieSTAT3(wt) [1] = experiment: drug sensitivity score (DSS), viability CellTiter-Glo (DSS (dimensionless)); higher = more growth inhibition; extreme values may be limits of the assay; settings: 72 h; STAT3 variant: wild type
Procedure, shortened: (§1)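 In 384-well plates with acoustically pre-plated compounds (5 concentrations, 10-fold dilutions), 20 μl of HEK293 cells at 100,000 cells/ml were added; the cells overexpressed wild-type or mutant STAT3 and carried a STAT3-dependent luciferase reporter. Incubation lasted 72 hours at 37°C and 5% CO2 before sequential CellTox Green (485/520 nm) and CellTiter-Glo reads on a PHERAstar FS. After normalisation to negative and positive control wells, Breeze was used to derive a drug sensitivity score from the dose-response curve area.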

HEK293sieSTAT3(Y640F) [2] = experiment: as above; settings: 72 h; STAT3 variant: Y640F (constitutively active)
Procedure, shortened: as §1

HEK293sieSTAT3(wt) [3] = experiment: drug sensitivity score (DSS), cytotoxicity CellTox Green (DSS (dimensionless)); higher = more cytotoxic; extreme values may be limits of the assay; settings: 72 h; STAT3 variant: wild type
Procedure, shortened: as §1

HEK293sieSTAT3(Y640F) [4] = experiment: as above; settings: 72 h; STAT3 variant: Y640F (constitutively active)
Procedure, shortened: as §1

| SMILES | drug sensitivity score (HEK293sieSTAT3(wt) [1]) | drug sensitivity score (HEK293sieSTAT3(Y640F) [2]) | drug sensitivity score (HEK293sieSTAT3(wt) [3]) | drug sensitivity score (HEK293sieSTAT3(Y640F) [4]) |
| --- | --- | --- | --- | --- |
| CCN1CCN(Cc2ccc(-c3cc4c(N[C@H](C)c5ccccc5)ncnc4[nH]3)cc2)CC1 [NVP-AEE788] (top concentration tested 2500 nM) | 1.25 | 1.43 | 0.32 | 0 |
| Nc1nccc(-c2c(-c3ccc(F)cc3)ncn2C2CCCCC2)n1 (top concentration tested 10000 nM) | 4.08 | 3.49 | 0 | 0 |
| CNC(=O)c1ccc(-c2cnc3ncc(Cc4ccc5ncccc5c4)n3n2)cc1F [NVP-INC280] (top concentration tested 1000 nM) | 2.77 | 3.02 | 0 | 0 |
| O=C(O)CCCc1ccc(N(CCCl)CCCl)cc1 [Chlorambucil] (top concentration tested 10000 nM) | 0.99 | 1.45 | 0 | 0 |
| CC1(C)CCC(c2ccc(Cl)cc2)=C(CN2CCN(c3ccc(C(=O)NS(=O)(=O)c4ccc(N[C@H](CCN5CCOCC5)CSc5ccccc5)c(S(=O)(=O)C(F)(F)F)c4)cc3)CC2)C1 [Navitoclax] (top concentration tested 10000 nM) | 0 | 0 | 0 | 0 |
| Cc1ccc(F)c(NC(=O)Nc2ccc(-c3cccc4[nH]nc(N)c34)cc2)c1 [Linifanib] (top concentration tested 1000 nM) | 0 | 0 | 0 | 0 |
| COc1cc(F)c(F)c(Nc2ccc(I)cc2F)c1NS(=O)(=O)C1(C[C@H](O)CO)CC1 [Refametinib] (top concentration tested 10000 nM) | 1.58 | 2.4 | 0 | 0 |
| CO[C@H]1C[C@@H]2CC[C@@H](C)[C@@](O)(O2)C(=O)C(=O)N2CCCC[C@H]2C(=O)O[C@H]([C@H](C)C[C@@H]2CC[C@@H](OC(=O)C(C)(CO)CO)[C@H](OC)C2)CC(=O)[C@H](C)/C=C(\C)[C@@H](O)[C@@H](OC)C(=O)[C@H](C)C[C@H](C)/C=C/C=C/C=C/1C [Temsirolimus] (top concentration tested 100 nM) | 17.6 | 11.2 | 0 | 0 |
| COc1cc2ncnc(Nc3ccc(F)c(Cl)c3)c2cc1OCCCN1CCOCC1 [Gefitinib] (top concentration tested 10000 nM) | 3.96 | 1.88 | 1.5 | 0 |
| C1=N/C2=N/c3ccc(OCCN4CCCC4)c(c3)COC/C=C/COCc3cccc(c3)C(=C1)N2 [Pacritinib] (top concentration tested 10000 nM) | 11.1 | 12.1 | 10.8 | 6.22 |
| Cc1ccc(NC(=O)c2ccc(CN3CCN(C)CC3)cc2)cc1Nc1nccc(-c2cccnc2)n1 [Imatinib] (top concentration tested 10000 nM) | 7.13 | 4.88 | 5.22 | 0.42 |
| Cc1cccc(-c2[nH]c(CNc3ccccc3F)nc2-c2ccc3ncnn3c2)n1 [TEW-7197] (top concentration tested 2500 nM) | 1.04 | 2.53 | 0.27 | 0 |
| CCCCc1nc2cc(/C=C/C(=O)NO)ccc2n1CCN(CC)CC [Pracinostat] (top concentration tested 10000 nM) | 22 | 20.7 | 14.5 | 9.85 |
| O=c1cc(N2CCOCC2)oc2c(-c3ccccc3)cccc12 (top concentration tested 100000 nM) | 11.8 | 10.6 | 5.12 | 2.63 |
| Clc1ccc(C(c2ccccc2Cl)C(Cl)Cl)cc1 (stereo not drawn) [Mitotane] (top concentration tested 10000 nM) | 0 | 0 | 0 | 0 |
| Nc1nc(OCc2cc(Br)cs2)c2[nH]cnc2n1 [Lomeguatrib] (top concentration tested 10000 nM) | 0.39 | 2.48 | 0.01 | 0 |
| CC(=O)O[C@@]12CO[C@@H]1C[C@H](O)[C@@]1(C)C(=O)[C@H](O)C3=C(C)[C@@H](OC(=O)[C@H](O)[C@@H](NC(=O)OC(C)(C)C)c4ccccc4)C[C@@](O)([C@@H](OC(=O)c4ccccc4)[C@H]21)C3(C)C [Docetaxel] (top concentration tested 1000 nM) | 31 | 22.8 | 11.3 | 1.47 |
| C[C@@H](Oc1cc(-c2cnn(C3CCNCC3)c2)cnc1N)c1c(Cl)ccc(F)c1Cl [Crizotinib] (top concentration tested 1000 nM) | 1.97 | 1.05 | 5.34 | 0.46 |
| c1cc(CN2CCCNCCNCCCNCC2)ccc1CN1CCCNCCNCCCNCC1 [Plerixafor] (top concentration tested 10000 nM) | 0 | 0 | 0.25 | 0 |
| CO[C@@]12[C@H](COC(N)=O)C3=C(C(=O)C(C)=C(N)C3=O)N1C[C@@H]1N[C@@H]12 [Mitomycin C] (top concentration tested 10000 nM) | 5.72 | 14.5 | 1.95 | 0.86 |
| Cc1ccc(-c2cc(C(F)(F)F)nn2-c2ccc(S(N)(=O)=O)cc2)cc1 [Celecoxib] (top concentration tested 10000 nM) | 4.14 | 0.58 | 0.02 | 0 |

| SMILES | drug sensitivity score (HEK293sieSTAT3(wt) [1]) | drug sensitivity score (HEK293sieSTAT3(Y640F) [2]) | drug sensitivity score (HEK293sieSTAT3(wt) [3]) | drug sensitivity score (HEK293sieSTAT3(Y640F) [4]) |
| --- | --- | --- | --- | --- |
| COCC1(CO)C(=O)C2CCN1CC2 (stereo not drawn) [APR-246] (top concentration tested 10000 nM) | 1.99 | 0 | 0 | 0 |
| CCn1nnc2c(N3CCOCC3)nc(-c3ccc(NC(=O)Nc4ccc(C(=O)N5CCN(C)CC5)cc4)cc3)nc21 [PKI-402] (top concentration tested 2500 nM) | 16.8 | 16.7 | 5.48 | 0 |
| COC[C@H](NC(=O)c1cnc(C)s1)C(=O)N[C@@H](COC)C(=O)N[C@@H](Cc1ccccc1)C(=O)[C@@]1(C)CO1 [Oprozomib] (top concentration tested 2500 nM) | 28.8 | 23.6 | 28.3 | 21.5 |
| CC[C@H](C)C(=O)O[C@H]1C[C@H](O)C=C2C=C[C@H](C)[C@H](CC[C@@H](O)C[C@@H](O)CC(=O)O)[C@H]21 [Pravastatin] (top concentration tested 10000 nM) | 2.37 | 0 | 0 | 0.36 |
| CC[C@@H]1C(=O)N(C)c2cnc(Nc3ccc(C(=O)N[C@H]4CC[C@H](N5CCN(CC6CC6)CC5)CC4)cc3OC)nc2N1C(C)C [Volasertib] (top concentration tested 1000 nM) | 21.7 | 22.1 | 21.4 | 12.6 |
| O=C(O)c1ccc(-c2c[nH]c3ncc(-c4ccccc4)cc23)cc1C1CCCC1 (top concentration tested 10000 nM) | 3.17 | 2.42 | 3.29 | 0 |
| c1ccc(Cn2c(-c3ccc(OC[C@H](C4CCNCC4)n4c(-c5ccccc5)nc5ccccc54)cc3)nc3ccccc32)cc1 [deltarasin] (top concentration tested 10000 nM) | 8.74 | 7.04 | 8.33 | 7.78 |
| COc1cc(Nc2ncc(F)c(Nc3ccc4c(n3)NC(=O)C(C)(C)O4)n2)cc(OC)c1OC [Tamatinib] (top concentration tested 10000 nM) | 3.72 | 2.55 | 8.52 | 5.91 |
| CN[C@@H](C)C(=O)N[C@H]1CN(C(=O)CC(C)C)CC[C@H]2CC[C@@H](C(=O)NC(c3ccccc3)c3ccccc3)N2C1=O [AT-406] (top concentration tested 10000 nM) | 17.9 | 8.75 | 33.2 | 12.6 |
| COc1c(OCCCN2CCOCC2)ccc2c1N=C(NC(=O)c1cnc(N)nc1)N1CCN=C21 [Copanlisib] (top concentration tested 1000 nM) | 18.3 | 15.5 | 0.34 | 0 |
| CNC(=O)c1ccccc1Nc1nc(Nc2ccc3c(c2OC)CCC[C@H](N2CCN(CCO)CC2)C3)ncc1Cl (top concentration tested 5000 nM) | 9.3 | 7.82 | 6.35 | 0 |
| Nc1ccn([C@@H]2O[C@H](CO)[C@@H](O)C2(F)F)c(=O)n1 [Gemcitabine] (top concentration tested 1000 nM) | 19.5 | 14.6 | 4.58 | 2.77 |
| CCC(C)n1ncn(-c2ccc(N3CCN(c4ccc(OCC5COC(Cn6cncn6)(c6ccc(Cl)cc6Cl)O5)cc4)CC3)cc2)c1=O (stereo not drawn) [Itraconazole] (top concentration tested 5000 nM) | 5.54 | 6.28 | 7.01 | 4.55 |
| C[C@@H](C(=O)O)c1ccc(-c2ccccc2)c(F)c1 [Tarenflurbil] (top concentration tested 10000 nM) | 0.56 | 0.09 | 0 | 0 |
| C[C@]12C=CC(=O)C=C1CC[C@@H]1[C@@H]2[C@@H](O)C[C@@]2(C)[C@H]1CC[C@]2(O)C(=O)CO [Prednisolone] (top concentration tested 10000 nM) | 0 | 0 | 0 | 0 |
| COc1ccc(-c2nc(N3CCOCC3)c3sc(CN(C)c4ncc(C(=O)NO)cn4)cc3n2)cn1 [CUDC-907] (top concentration tested 10000 nM) | 37.1 | 36.8 | 30.6 | 19.1 |
| CS(=O)(=O)N1CCc2c(-c3cnc(N)nc3)nc(N3CCOCC3)nc21 (top concentration tested 10000 nM) | 15.5 | 12 | 5.98 | 0 |
| Cc1ccc(-n2nc(C(C)(C)C)cc2NC(=O)Nc2ccc(OCCN3CCOCC3)c3ccccc23)cc1 [Doramapimod] (top concentration tested 10000 nM) | 3.87 | 5.05 | 0 | 0.14 |
| CCn1c(=O)c(-c2ccc(Cl)cc2Cl)cc2cnc(Nc3ccc(N4CCNCC4)c(F)c3)nc21 [FRAX486] (top concentration tested 5000 nM) | 9.57 | 6.38 | 6.75 | 0 |
| CCNC(=O)c1noc(-c2cc(C(C)C)c(O)cc2O)c1-c1ccc(CN2CCOCC2)cc1 [Luminespib] (top concentration tested 1000 nM) | 27.8 | 23.7 | 15.9 | 7.6 |
| N#Cc1ccc2[nH]c(O)c(-c3ccc(CN4CCOCC4)cn3)c2c1 [AZD-1080] (top concentration tested 10000 nM) | 0.74 | 1.14 | 2.84 | 0 |
